Legend:
[1] = test system: Puccinia recondita f. sp. Tritici; assay: Fungicidal activity against Puccinia recondita f. sp. Tritici / wheat / leaf disc preventative (brown rust); assay type: in vivo; settings: foliar, 200 ppm in the applied formulation, wheat leaf segments cv. Kanzler, inoculated 1 day after application, vs untreated control, read-out: disease control
Method in brief: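 Wheat cv. Kanzler leaf segments on agar sprayed with diluted compound, inoculated with brown rust spores 1 day later. Kept at 19° C., 75% rh, 12 h light/dark; percent disease control versus untreated segments scored 7 to 9 days after application, compounds tested at 200 ppm.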

[2] = test system: Puccinia recondita f. sp. Tritici; assay: Fungicidal activity against Puccinia recondita f. sp. Tritici / wheat / leaf disc curative (brown rust); assay type: in vivo; settings: foliar, 24 h, 200 ppm in the applied formulation, wheat leaf segments cv. Kanzler, applied 1 day after inoculation, vs untreated control, read-out: disease control
Method: Leaf disks or leaf segments of various plant species are cut from plants grown in a greenhouse. The cut leaf disks or segments are placed in multiwell plates (24-well format) onto water agar. The leaf disks are sprayed with a test solution before (preventative) or after (curative) inoculation. Compounds to be tested are prepared as DMSO solutions (max. 10 mg/ml) which are diluted to the appropriate concentration with 0.025% Tween20 just before spraying. The inoculated leaf disks or segments are incubated under defined conditions (temperature, relative humidity, light, etc.) according to the respective test system. A single evaluation of disease level is carried out 3 to 14 days after inoculation, depending on the pathosystem. Percent disease control relative to the untreated check leaf disks or segments is then calculated.
Wheat leaf segments cv. Kanzler are placed on agar in multiwell plates (24-well format). The leaf segments are then inoculated with a spore suspension of the fungus. Plates were stored in darkness at 19° C. and 75% relative humidity. The formulated test compound diluted in water was applied 1 day after inoculation. The leaf segments were incubated at 19° C. and 75% relative humidity under a light regime of 12 hours light/12 hours darkness in a climate cabinet and the activity of a compound was assessed as percent disease control compared to untreated when an appropriate level of disease damage appears in untreated check leaf segments (6 to 8 days after application).
The following compounds at 200 ppm in the applied formulation give at least 80% disease control in this test when compared to untreated control leaf disks under the same conditions, which show extensive disease development.

Phakopsora pachyrhizi = assay: Fungicidal activity against Phakopsora pachyrhizi / soybean / leaf disc preventative (Asian soybean rust); assay type: in vivo; settings: foliar, 200 ppm in the applied formulation, soybean leaf disks, vs untreated control, read-out: disease control
Method in brief: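 Soybean leaf discs on water agar sprayed with compound diluted in water, then inoculated with spores on the lower surface one day later. Kept 24-36 h dark, 20 °C, 75% rh, then 12 h light/12 h dark. Percent disease control versus untreated scored 12-14 days after application.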

[3] = test system: Glomerella lagenarium (Colletotrichum lagenarium); assay: Fungicidal activity against Glomerella lagenarium (Colletotrichum lagenarium) liquid culture / cucumber / preventative (anthracnose); assay type: cell-based; settings: Colletotrichum orbiculare, 72 h; 20 ppm in the applied formulation; liquid culture (PDB), growth inhibition measured photometrically 3 to 4 days after application; vs untreated control; read-out: disease control
Method in brief: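 In liquid culture, cryo-stored conidia in potato dextrose broth were exposed to compound delivered from DMSO solution. Growth inhibition was measured photometrically after 3 to 4 days at 24° C.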

| melting point [°C] | Structure (SMILES) | pest or weed control at 200 ppm [1] [%] | pest or weed control at 200 ppm [2] [%] | pest or weed control at 200 ppm (Phakopsora pachyrhizi) [%] | inhibition of growth at 20 ppm [3] [%] |
| --- | --- | --- | --- | --- | --- |
| 133 to 134 | CC(CNC(=O)c1ccc(-c2noc(C(F)(F)F)n2)cc1)=NOCCF [Compound 1.151, N-[2-(2-fluoroethoxyimino)propyl]-4-[5-(trifluoromethyl)-1,2,4-oxadiazol-3-yl]benzamide] | ≥ 80 | ≥ 80 | ≥ 80 | ≥ 80 |
| 151 to 152 | CO/N=C(/C)CNC(=O)c1ccc(-c2noc(C(F)(F)F)n2)cc1 [Compound 1.14, N-[(2Z)-2-methoxyimino-propyl]-4-[5-(trifluoromethyl)-1,2,4-oxadiazol-3-yl]benzamide] | ≥ 80 | ≥ 80 | ≥ 80 | ≥ 80 |
| 116 to 118 | CON=CCNC(=O)c1ccc(-c2noc(C(F)(F)F)n2)cc1F [Compound 1.169, 2-fluoro-N-(2-methoxyimino-ethyl)-4-[5-(trifluoromethyl)-1,2,4-oxadiazol-3-yl]benzamide] |  |  |  |  |
| 113 to 115 | CCON=CC(C)NC(=O)c1ccc(-c2noc(C(F)(F)F)n2)cc1F (stereo not drawn) [Compound 1.156, N-(2-ethoxyimino-1-methyl-ethyl)-2-fluoro-4-[5-(trifluoromethyl)-1,2,4-oxadiazol-3-yl]benzamide] |  | ≥ 80 | ≥ 80 | ≥ 80 |
|  | CCCON=CCNC(=O)c1ccc(-c2noc(C(F)(F)F)n2)cc1 [Compound 1.72, N-(2-propoxyiminoethyl)-4-[5-(trifluoromethyl)-1,2,4-oxadiazol-3-yl]benzamide] | ≥ 80 | ≥ 80 | ≥ 80 | ≥ 80 |
| 60 to 62 | CO/N=C/CN(C(=O)c1ccc(-c2noc(C(F)(F)F)n2)cc1)C1CC1 [Compound 1.170, N-cyclopropyl-N-[(2E)-2-methoxyiminoethyl]-4-[5-(trifluoromethyl)-1,2,4-oxadiazol-3-yl]benzamide] |  |  |  |  |
|  | O=C(NCC=NOC1COC1)c1ccc(-c2noc(C(F)(F)F)n2)cc1 [Compound 1.102, N-[2-(oxetan-3-yloxyimino)ethyl]-4-[5-(trifluoromethyl)-1,2,4-oxadiazol-3-yl]benzamide] | ≥ 80 | ≥ 80 | ≥ 80 | ≥ 80 |
| 132 to 134 | CON=CC(C)NC(=O)c1ccc(-c2noc(C(F)(F)F)n2)cc1F (stereo not drawn) [Compound 1.155, 2-fluoro-N-(2-methoxyimino-1-methyl-ethyl)-4-[5-(trifluoromethyl)-1,2,4-oxadiazol-3-yl]benzamide] | ≥ 80 |  | ≥ 80 | ≥ 80 |
|  | CC(C)(C)ON=CCNC(=O)c1ccc(-c2noc(C(F)(F)F)n2)cc1 [Compound 1.89, N-(2-tert-butoxyiminoethyl)-4-[5-(trifluoromethyl)-1,2,4-oxadiazol-3-yl]benzamide] | ≥ 80 | ≥ 80 | ≥ 80 | ≥ 80 |
|  | C=CCON=CCNC(=O)c1ccc(-c2noc(C(F)(F)F)n2)cc1 [Compound 1.91, N-(2-allyloxyiminoethyl)-4-[5-(trifluoromethyl)-1,2,4-oxadiazol-3-yl]benzamide] | ≥ 80 | ≥ 80 | ≥ 80 | ≥ 80 |
|  | CC(C=NOCCO)NC(=O)c1ccc(-c2noc(C(F)(F)F)n2)cc1 (stereo not drawn) [Compound 1.15, N-[2-(2-hydroxyethoxy-imino)-1-methyl-ethyl]-4-[5-(trifluoromethyl)-1,2,4-oxadiazol-3-yl]benzamide] | ≥ 80 | ≥ 80 | ≥ 80 | ≥ 80 |
|  | O=C(NCC=NOC/C=C\Cl)c1ccc(-c2noc(C(F)(F)F)n2)cc1 [Compound 1.81, N-[2-[(Z)-3-chloroallyloxy]iminoethyl]-4-[5-(trifluoromethyl)-1,2,4-oxadiazol-3-yl]benzamide] | ≥ 80 | ≥ 80 | ≥ 80 | ≥ 80 |
|  | CO/N=C/CNC(=O)c1ccc(-c2noc(C(F)(F)F)n2)cc1F [Compound 1.4, 2-fluoro-N-[(2E)-2-methoxyimino-ethyl]-4-[5-(trifluoromethyl)-1,2,4-oxadiazol-3-yl]benzamide] | ≥ 80 | ≥ 80 | ≥ 80 | ≥ 80 |
|  | CC(C=NOCC=CCl)NC(=O)c1ccc(-c2noc(C(F)(F)F)n2)cc1 (stereo not drawn) [Compound 1.33, N-[2-(3-chloroallyloxy-imino)-1-methyl-ethyl]-4-[5-(trifluoromethyl)-1,2,4-oxadiazol-3-yl]benzamide] | ≥ 80 | ≥ 80 | ≥ 80 | ≥ 80 |
|  | C=CCON=CC(C)NC(=O)c1ccc(-c2noc(C(F)(F)F)n2)cc1 (stereo not drawn) [Compound 1.46, N-(2-allyloxyimino-1-methyl-ethyl)-4-[5-(trifluoromethyl)-1,2,4-oxadiazol-3-yl]benzamide] | ≥ 80 | ≥ 80 | ≥ 80 | ≥ 80 |
|  | CCCON=C(C)CNC(=O)c1ccc(-c2noc(C(F)(F)F)n2)cc1 [Compound 1.116, N-(2-propoxyimino-propyl)-4-[5-(trifluoromethyl)-1,2,4-oxadiazol-3-yl]benzamide] | ≥ 80 | ≥ 80 | ≥ 80 | ≥ 80 |
|  | C[C@@H](ON=CCNC(=O)c1ccc(-c2noc(C(F)(F)F)n2)cc1)C(=O)O [Compound 1.74, (2R)-2-[2-[[4-[5-(trifluoromethyl)-1,2,4-oxadiazol-3-yl]benzoyl]amino]ethylideneamino] oxypropanoic acid] | ≥ 80 | ≥ 80 | ≥ 80 | ≥ 80 |
|  | CON=C(C)CNC(=O)c1ccc(-c2noc(C(F)(F)F)n2)cc1 [Compound 1.133, N-(2-methoxyimino-propyl)-4-[5-(trifluoromethyl)-1,2,4-oxadiazol-3-yl]benzamide] | ≥ 80 | ≥ 80 | ≥ 80 | ≥ 80 |
|  | O=C(NCC=NOCC(F)(F)F)c1ccc(-c2noc(C(F)(F)F)n2)cc1 [Compound 1.95, N-[2-(2,2,2-trifluoroethoxy-imino)ethyl]-4-[5-(trifluoromethyl)-1,2,4-oxadiazol-3-yl]benzamide] | ≥ 80 | ≥ 80 | ≥ 80 | ≥ 80 |
|  | C=CCON=C(C)CNC(=O)c1ccc(-c2noc(C(F)(F)F)n2)cc1 [Compound 1.135, N-(2-allyloxyimino-propyl)-4-[5-(trifluoromethyl)-1,2,4-oxadiazol-3-yl]benzamide] | ≥ 80 | ≥ 80 | ≥ 80 | ≥ 80 |
|  | CC(CNC(=O)c1ccc(-c2noc(C(F)(F)F)n2)cc1)=NOCCO [Compound 1.104] | ≥ 80 | ≥ 80 | ≥ 80 | ≥ 80 |
|  | O=C(NCC=NOCC1CC1)c1ccc(-c2noc(C(F)(F)F)n2)cc1 [Compound 1.101, N-[2-(cyclopropyl-methoxyimino)ethyl]-4-[5-(trifluoromethyl)-1,2,4-oxadiazol-3-yl]benzamide] | ≥ 80 | ≥ 80 | ≥ 80 | ≥ 80 |

— patent publication US11192867B2, “Microbiocidal oxadiazole derivatives” (SYNGENTA PARTICIPATIONS AG, priority 2016, dated 2021)
